27 compounds from US10968210B2, “Diamino-alkylamino-linked arylsulfonamide compounds with selective activity in voltage-gated sodium channels” (Merck Sharp & Dohme Corp., priority 2016, dated 2021) can be followed below.

The test deals with T1, human Nav 1.7 channels stably expressed in HEK 293 cells (Homo sapiens, UniProt Q15858).
T1 construct: expressed in transfected cells; host or cells: HEK 293
The experiment in a line: IonWorks Quattro automated patch-clamp, inactivated state block of Nav 1.7. The test is classed as cell-based. Conditions: double-pulse protocol, HEK 293 cells held at -100 mV, read-out: potency for the Nav 1.7 sodium ion channel (IC50, IonWorks). Here is the method:
IonWorks® Experimental Procedure
Compounds were tested on human Nav 1.7 and Nav 1.5 channels stably expressed in HEK 293 cells. Sodium current measurements on IonWorks Quattro: An automated patch-clamp assay on the IonWorks Quattro platform (Molecular Devices) was used to measure state-dependent inhibition of human Nav 1.7 and Nav 1.5 channels. Cells were sealed on a planar substrate using the Population Patch Plate (PPC) technology. Electrical access was obtained using both nystatin and amphotericin. A double-pulse protocol was used for the determination of IC50 values for inactivated state block. Nav 1.7 and Nav 1.5 expressing cells were voltage clamped at −100 mV and −110 mV, respectively. A depolarizing prepulse to −10 mV (Nav 1.7) or −30 mV (Nav 1.5) for 1000 ms followed by a 10 ms repolarization to ˜100 mV (Nav1.7) or −110 mV (Nav 1.5) was given to generate fractional channel inactivation of ˜50%, followed by a 10 ms test pulse to −10 mV (Nav 1.7) or −30 mV (Nav 1.5) to measure peak current in control conditions and after compound addition. The following recording solutions were used (mM). External: 150 NaCl, 2 CaCl2, 5 KCl, 1 Mg Cl2, 10 HEPES, 12 Dextrose; internal: 120 CsF, 30 CsCl, 10 EGTA, 5 HEPES, 5 NaF, 2 MgCl2.
For all electrophysiology experiments, offline analysis was used to determine percent inhibition as a function of drug concentration. IC50 values were determined by fitting to the Hill equation.
The various compounds in Examples 1 through 4 and Tables 1 through 3 exemplified above were assayed for activity and selectivity using the foregoing IonWorks® technique. The results are reported in the following paragraph in a format expressing the identification of the compound with reference Example and compound (e.g. Ex 1-9 is Example 1, compound 9) followed by the observed potency in nM and the ratio of Nav1.7 potency: Nav1.5 potency as described here. Thus, Ex1-9: 1.7=65/ratio=641 identifies compound Example 1, compound 9 as having 65 nM potency for the Nav 1.7 sodium ion channel (as measured by IonWorks®) and a ratio of 641 Nav 1.7: Nav 1.5 potency, determined by IonWorks® measurement.
In general terms: The patch-clamp technique gives a direct electrical read-out from membranes.

The term IC50 denotes the point on the concentration scale where inhibition reaches its midpoint.

T1 sequence (Q15858 whole entry): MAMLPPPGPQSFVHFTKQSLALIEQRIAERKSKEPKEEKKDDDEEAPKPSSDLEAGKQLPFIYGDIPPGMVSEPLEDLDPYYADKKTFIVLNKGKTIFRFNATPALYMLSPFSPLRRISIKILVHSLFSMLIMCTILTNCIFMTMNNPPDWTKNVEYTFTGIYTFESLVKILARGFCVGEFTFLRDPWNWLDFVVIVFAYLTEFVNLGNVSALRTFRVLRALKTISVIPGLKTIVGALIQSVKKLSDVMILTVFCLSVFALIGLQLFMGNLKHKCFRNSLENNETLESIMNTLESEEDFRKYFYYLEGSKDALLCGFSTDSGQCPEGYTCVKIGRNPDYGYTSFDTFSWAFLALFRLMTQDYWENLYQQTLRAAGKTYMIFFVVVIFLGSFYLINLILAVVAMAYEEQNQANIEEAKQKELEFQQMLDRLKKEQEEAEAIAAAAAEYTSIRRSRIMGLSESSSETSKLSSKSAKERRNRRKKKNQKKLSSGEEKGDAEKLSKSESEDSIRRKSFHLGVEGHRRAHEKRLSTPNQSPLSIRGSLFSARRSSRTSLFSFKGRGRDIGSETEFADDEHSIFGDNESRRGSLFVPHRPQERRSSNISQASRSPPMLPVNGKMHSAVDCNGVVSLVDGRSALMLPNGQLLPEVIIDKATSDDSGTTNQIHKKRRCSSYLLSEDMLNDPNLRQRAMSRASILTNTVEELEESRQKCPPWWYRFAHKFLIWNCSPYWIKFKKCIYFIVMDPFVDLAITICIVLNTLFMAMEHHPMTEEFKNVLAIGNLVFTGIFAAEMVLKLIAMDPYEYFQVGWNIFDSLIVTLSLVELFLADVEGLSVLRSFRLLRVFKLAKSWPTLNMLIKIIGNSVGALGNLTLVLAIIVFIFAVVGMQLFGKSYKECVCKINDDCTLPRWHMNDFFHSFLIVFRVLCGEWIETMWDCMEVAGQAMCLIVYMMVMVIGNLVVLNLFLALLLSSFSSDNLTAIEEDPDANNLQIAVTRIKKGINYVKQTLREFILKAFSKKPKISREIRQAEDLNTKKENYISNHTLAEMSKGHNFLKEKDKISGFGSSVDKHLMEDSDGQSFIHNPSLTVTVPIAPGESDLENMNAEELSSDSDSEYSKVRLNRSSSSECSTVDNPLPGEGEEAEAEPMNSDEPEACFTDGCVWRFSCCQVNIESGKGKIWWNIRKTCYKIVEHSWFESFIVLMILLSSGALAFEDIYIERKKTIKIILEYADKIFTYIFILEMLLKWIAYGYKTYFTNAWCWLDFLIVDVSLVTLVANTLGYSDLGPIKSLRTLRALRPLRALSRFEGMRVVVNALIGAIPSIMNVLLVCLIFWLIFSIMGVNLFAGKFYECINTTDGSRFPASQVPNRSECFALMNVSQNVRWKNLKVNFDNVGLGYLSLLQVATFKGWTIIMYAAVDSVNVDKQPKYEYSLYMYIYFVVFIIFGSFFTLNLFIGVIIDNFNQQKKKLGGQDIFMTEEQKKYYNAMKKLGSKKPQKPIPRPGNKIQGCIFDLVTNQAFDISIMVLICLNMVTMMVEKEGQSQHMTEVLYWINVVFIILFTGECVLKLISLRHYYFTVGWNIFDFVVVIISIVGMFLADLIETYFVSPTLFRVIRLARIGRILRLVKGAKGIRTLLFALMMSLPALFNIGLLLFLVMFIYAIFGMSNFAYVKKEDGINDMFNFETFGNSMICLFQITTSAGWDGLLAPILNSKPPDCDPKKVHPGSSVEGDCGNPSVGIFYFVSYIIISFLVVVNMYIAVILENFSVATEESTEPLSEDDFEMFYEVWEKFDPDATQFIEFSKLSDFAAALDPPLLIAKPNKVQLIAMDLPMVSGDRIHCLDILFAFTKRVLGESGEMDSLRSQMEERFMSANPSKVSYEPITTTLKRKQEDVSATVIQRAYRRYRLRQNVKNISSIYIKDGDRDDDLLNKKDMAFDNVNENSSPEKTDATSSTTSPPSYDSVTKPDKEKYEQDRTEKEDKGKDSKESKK

On to `NCC1CCCN(CCCCNc2cc(F)c(S(=O)(=O)Nc3nccs3)cc2Cl)C1` (stereo not drawn) [Ex 1-46, 4-({4-[3-(aminomethyl)piperidin-1-yl]butyl}amino)-5-chloro-2-fluoro-N-1,3-thiazol-2-ylbenzenesulfonamide], for which the IC50 turned out to be 30 nM.
The value for `O=S(=O)(Nc1ncc(F)s1)c1cc(Br)c(NCCCCN2C[C@H]3CCCN[C@H]3C2)cc1F` [Ex 16-44, 5-bromo-2-fluoro-N-(5-fluoro-1,3-thiazol-2-yl)-4-({4-[(4aR,7aR)-octahydro-6H-pyrrolo[3,4-b]pyridin-6-yl]butyl}amino)benzene-sulfonamide] was 12 nM; that for `O=S(=O)(Nc1nccs1)c1cc(Cl)c(NCCCCNCC2NCc3ccccc32)cc1F` (single isomer, unassigned) [Ex 2-4 Enantiomer B, (S or R)-5-chloro-2-fluoro-4-((4-((isoindolin-1-ylmethyl)amino)butyl)amino)-N-(thiazol-2-yl)benzenesulfonamide] was 21 nM.
The value for `O=S(=O)(Nc1nccs1)c1cc(Cl)c(NCCCCN2CCC23CCCNC3)cc1F` (stereo not drawn) [Ex 1-40, 5-chloro-4-{[4-(1,6-diazaspiro[3.5]non-1-yl)-butyl]amino}-2-fluoro-N-1,3-thiazol-2-yl-benzenesulfonamide] was 110 nM.
The same measure for `NC1CN(CCCCNc2cc(F)c(S(=O)(=O)Nc3nccs3)cc2Cl)C1` [Ex 1-44, 4-{[4-(3-aminoazetidin-1-yl)butyl]amino}-5-chloro-2-fluoro-N-1,3-thiazol-2-ylbenzenesulfonamide]: 29 nM.
In the case of `NC1CN(CCCCNc2cc(F)c(S(=O)(=O)Nc3ncns3)cc2Cl)C1` [Ex 16-38, 4-{[4-(3-aminoazetidin-1-yl)-butyl]amino}-5-chloro-2-fluoro-N-1,2,4-thiadiazol-5-yl-benzenesulfonamide], the half-inhibitory concentration (IC50) was 30 nM.
Take `O=S(=O)(Nc1nccs1)c1cc(Cl)c(NCC(F)(F)CCNC[C@H]2CCCN2)cc1F` [Ex 11-12, 5-chloro-4-[(2,2-difluoro-4-{[(2R)-pyrrolidin-2-ylmethyl]amino}butyl)amino]-2-fluoro-N-1,3-thiazol-2-ylbenzenesulfonamide]: the half-maximal inhibitory concentration (IC50) was determined as 49 nM.
As to `O=S(=O)(Nc1nccs1)c1cc(Cl)c(NCCCCNC[C@@H]2C[C@H](c3ccccc3)CN2)cc1F` [Ex 8-13, 5-chloro-2-fluoro-4-{[4-({[(2S,4R)-4-phenylpyrrolidin-2-yl]-methyl}amino)-butyl]amino}-N-1,3-thiazol-2-yl-benzenesulfonamide], the IC50 amounted to 16 nM.
In the case of `C[C@H](CNC1CCOCC1)NCCCCNc1cc(F)c(S(=O)(=O)Nc2nccs2)cc1Cl` [Ex 1-26, 5-chloro-2-fluoro-4-[(4-{[(1R)-1-methyl-2-(tetrahydro-2H-pyran-4-ylamino)ethyl]amino}butyl)amino]-N-1,3-thiazol-2-ylbenzenesulfonamide], the IC50 was 30 nM.
Take `O=S(=O)(Nc1cccc(F)n1)c1cc(Cl)c(NCCCCCNC[C@@H]2CCCN2)cc1F` [Ex 9-2, (S)-5-chloro-2-fluoro-N-(6-fluoropyridin-2-yl)-4-((5-((pyrrolidin-2-ylmethyl)amino)pentyl)amino)benzenesulfonamide]: the IC50 is 29 nM.
On to `NCC1(c2ccccc2)CCN(CCCCNc2cc(F)c(S(=O)(=O)Nc3nccs3)cc2Cl)CC1` [Ex 1-45, 4-({4-[4-(aminomethyl)-4-phenylpiperidin-1-yl]butyl}amino)-5-chloro-2-fluoro-N-1,3-thiazol-2-ylbenzenesulfonamide], for which the IC50 was 110 nM.
The value for `O=S(=O)(Nc1nccs1)c1cc(Cl)c(NCCCCN2CC3CCCNC3C2)cc1F` (stereo not drawn) [Ex 1-13, 5-chloro-2-fluoro-4-{[4-(octahydro-6H-pyrrolo[3,4-b]pyridin-6-yl)butyl]amino}-N-1,3-thiazol-2-ylbenzenesulfonamide] was 16 nM; that for `NC1CCCN(CCCCNc2cc(F)c(S(=O)(=O)Nc3nccs3)cc2Cl)CC1` (stereo not drawn) [Ex 1-43, 4-{[4-(4-aminoazepan-1-yl)butyl]amino}-5-chloro-2-fluoro-N-1,3-thiazol-2-ylbenzenesulfonamide] was 31 nM; that for `O=S(=O)(Nc1nccs1)c1cc(Cl)c(NCCCCNC[C@@H]2CC[C@H](c3ccccc3)N2)cc1F` [Ex 8-3, 5-chloro-2-fluoro-4-{[4-({[(2S,5R)-5-phenylpyrrolidin-2-yl]methyl}-amino)butyl]-amino}-N-1,3-thiazol-2-yl-benzenesulfonamide] was 13 nM.
With `O=S(=O)(Nc1nccs1)c1cc(Cl)c(NCCCCN[C@H]2CN[C@H](c3ccccc3)C2)cc1F` [Ex 1-8, 5-chloro-2-fluoro-4-[(4-{[(3R,5S)-5-phenylpyrrolidin-3-yl]amino}butyl)amino]-N-1,3-thiazol-2-ylbenzenesulfonamide], the IC50 was 11 nM.
As to `NC[C@H]1CCN1CCCCNc1cc(F)c(S(=O)(=O)Nc2ncc(F)s2)cc1Cl` [Ex 16-10, 4-({4-[(2R)-2-(aminomethyl)azetidin-1-yl]-butyl}amino)-5-chloro-2-fluoro-N-(5-fluoro-1,3-thiazol-2-yl)-benzene-sulfonamide], the IC50 amounted to 19 nM.
The value for `NC1C2CN(CCCCNc3cc(F)c(S(=O)(=O)Nc4nccs4)cc3Cl)CC12` (stereo not drawn) [Ex 1-42, 4-{[4-(6-amino-3-azabicyclo[3.1.0]hex-3-yl)butyl]amino}-5-chloro-2-fluoro-N-1,3-thiazol-2-ylbenzenesulfonamide] was 80 nM; that for `O=S(=O)(Nc1nccs1)c1cc(Cl)c(NCCCCN2CC[C@@H]3CCNC[C@@H]32)cc1F` [Ex 1-21, 5-chloro-2-fluoro-4-({4-[(3a5,7aR)-octahydro-1H-pyrrolo[2,3-c]pyridin-1-yl]butyl}amino)-N-1,3-thiazol-2-ylbenzenesulfonamide] was 21 nM; that for `O=S(=O)(Nc1nccs1)c1cc(Cl)c(NCCCCN2CCCC23CCNC3)cc1F` (stereo not drawn) [Ex 1-12, 5-chloro-4-{[4-(1,7-diazaspiro[4.4]non-1-yl)butyl]amino}-2-fluoro-N-1,3-thiazol-2-ylbenzenesulfonamide] was 66 nM.
As for `N#Cc1cc(S(=O)(=O)Nc2ncns2)c(F)cc1NCCCCN[C@@H]1CCNC1` [Ex 16-45, 5-cyano-2-fluoro-4-({4-[(3R)-pyrrolidin-3-yl-amino]butyl}amino)-N-1,2,4-thiadiazol-5-ylbenzene-sulfonamide], the IC50 was 16 nM.
The value for `O=S(=O)(Nc1nccs1)c1cc(Cl)c(NCCCCNCC2NCc3ccccc32)cc1F` (single isomer, unassigned) [Ex 2-4 Enantiomer A, (R or S)-5-chloro-2-fluoro-4-((4-((isoindolin-1-ylmethyl)amino)butyl)amino)-N-(thiazol-2-yl)benzenesulfonamide] was 29 nM; that for `Cc1cc(S(=O)(=O)Nc2ncc(F)s2)c(F)cc1NCCCCN[C@@H]1CCNC1` [Ex 16-43, 2-fluoro-N-(5-fluoro-1,3-thiazol-2-yl)-5-methyl-4-({4-[(3R)-pyrrolidin-3-ylamino]-butyl}amino)benzene-sulfonamide] was 11 nM.
With `N[C@H]1CCN(CCCCNc2cc(F)c(S(=O)(=O)Nc3nccs3)cc2Cl)C1` [Ex 1-11, 4-({4-[(3S)-3-aminopyrrolidin-1-yl]butyl}amino)-5-chloro-2-fluoro-N-1,3-thiazol-2-ylbenzenesulfonamide], the IC50 amounted to 19 nM.
For `N#Cc1cc(S(=O)(=O)Nc2ncc(F)s2)c(F)cc1NCCCCN[C@@H]1CCNC1` [Ex 16-40, 5-cyano-2-fluoro-N-(5-fluoro-1,3-thiazol-2-yl)-4-({4-[(3R)-pyrrolidin-3-yl-amino]butyl}amino)benzene-sulfonamide], the IC50 came to 29 nM.
The same measure for `O=S(=O)(Nc1nccs1)c1cc(Cl)c(NCCCCNC2C[C@@H]3CN[C@H]2C3)cc1F` (stereo partly drawn) [Ex 16-42, 4-({4-[(1S,4R)-2-azabicyclo[2.2.1]hept-6-yl-amino]butyl}amino)-5-chloro-2-fluoro-N-1,3-thiazol-2-ylbenzene-sulfonamide]: 44 nM; for `O=S(=O)(Nc1ncc(F)s1)c1ccc(NCCCCNC[C@@H]2CCCN2)c(Cl)c1` [Ex 7-13, 3-chloro-N-(5-fluoro-1,3-thiazol-2-yl)-4-[(4-{[(2S)-pyrrolidin-2-ylmethyl]amino}butyl)amino]benzenesulfonamide]: 16 nM.
The value for `CN[C@@H]1CCN(CCCCNc2cc(F)c(S(=O)(=O)Nc3ncc(F)s3)cc2Cl)C1` [Ex 16-54, 5-chloro-2-fluoro-N-(5-fluoro-1,3-thiazol-2-yl)-4-({4-[(3R)-3-(methylamino)-pyrrolidin-1-yl]butyl}-amino)-benzenesulfonamide] was 13 nM.
